Data as given in patent US12357632B2, “Methods of treating cholangiocarcinoma” (QED Therapeutics, Inc., priority 2019, dated 2025).
Entries after “also recorded” stand apart in the source; their conditions may differ.

Assays:
[1] = test system: advanced or metastatic cholangiocarcinoma with FGFR genetic alterations; test: Phase II study of oral BGJ398 in advanced or metastatic cholangiocarcinoma, Patient 5010004 (RECIST v1.1); type: in vivo, human
Procedure: This is a multi-center, open label, single arm phase II study evaluating BGJ398 anti-tumor activity in advanced or metastatic cholangiocarcinoma patients with FGFR genetic alterations. 125 mg of oral, monotherapy BGJ398 is administered once daily for the first 3 weeks (21 days) of each 28-day cycle. The starting dose of 125 mg may be reduced to 100 mg, 75 mg, or 50 mg. The treatment period begins on Cycle 1, Day 1, and continues until disease progression, unacceptable toxicity, withdrawal of informed consent, or death. Patients are evaluated for tumor response radiographically every 8 weeks until disease progression or discontinuation from study using RECIST v1.1 criteria.
Adult patients with histologically or cytologically confirmed advanced or metastatic cholangiocarcinoma with FGFR2 gene fusions or translocations or other FGFR genetic alteration who have evidence of radiologic progression following a cisplatin- and gemcitabine-containing regimen for advanced disease or a gemcitabine-containing regimen for those who are considered intolerant to cisplatin are enrolled. Up to approximately 160 adult patients over age 18, both male and female are enrolled. Three cohorts of patients comprise the study population: • Cohort 1: ˜120 patients, 108 with FGFR2 gene fusions or translocations and 12 with other FGFR genetic alterations. • Cohort 2: ˜20 patients with FGFR genetic alterations other than FGFR2 gene fusions or translocations. • Cohort 3: Up to ˜20 patients with FGFR2 gene fusions or translocations who have received a prior FGFR inhibitor. Main Inclusion Criteria
Tumor response according to RECIST v1.1, and survival.
During treatment with infigratinib, the patient's response was determined by follow-up assessments conducted by a local investigator per RECIST v1.1.

[2] = Tolerability (body weight, clinical observations) in Vex-MR086M1 xenograft study; type: in vivo, Mouse (Mus musculus)
Procedure: All animals were weighed at the same time as tumor size measurement. A Relative Body Weight loss (RBW loss) was considered as adverse effect of the treatment.
Mice were observed every day for physical appearance, behavior and clinical changes.
Relative Body Weight (RBW) is calculated for each measurement by dividing the body weight by the body weight at the start of treatment.
Individual Body weight loss percent (% BWL)=100−(BWX/BW0×100), where BWX is the BW at any day during the treatment and BW0 is the BW on the day of inclusion.
Mean Body weight loss percent (% BWL)=100−(mean BWX/mean BW0×100), where BWX is the mean BW at any day during the treatment and BW0 is the mean BW on the day of inclusion.

[3] = infigratinib 50 mg/kg PO qdx21, on D18

CCN1CCN(c2ccc(Nc3cc(N(C)C(=O)Nc4c(Cl)c(OC)cc(OC)c4Cl)ncn3)cc2)CC1 [Infigratinib, 3-(2,6-dichloro-3,5-dimethoxyphenyl)-1-{6-[4-(4-ethyl-1-piperazin-1-yl)phenylamino]-pyrimidinyl-4-yl}-1-methylurea]
New Lesion ([1]; Patient 5010004, Study Day 54): No
Non-Target Lesion Response ([1]; Patient 5010004, Study Day 54): Non-CR^1/Non-PD^2
Overall Response ([1]; Patient 5010004, Study Day 54): Stable disease
Target Lesion % Change from Baseline ([1]; Patient 5010004, Study Day 54): 18.33%
New Lesion ([1]; Patient 5010004, Study Day 83): No
Non-Target Lesion Response ([1]; Patient 5010004, Study Day 83): Non-CR/Non-PD
Overall Response ([1]; Patient 5010004, Study Day 83): Stable disease
Target Lesion % Change from Baseline ([1]; Patient 5010004, Study Day 83): 16.33%
New Lesion ([1]; Patient 5010004, Study Day 110): No
Non-Target Lesion Response ([1]; Patient 5010004, Study Day 110): Non-CR/Non-PD
Overall Response ([1]; Patient 5010004, Study Day 110): Stable disease
Target Lesion % Change from Baseline ([1]; Patient 5010004, Study Day 110): 16.33%
New Lesion ([1]; Patient 5010004, Study Day 153): No
Non-Target Lesion Response ([1]; Patient 5010004, Study Day 153): Progressive
Overall Response ([1]; Patient 5010004, Study Day 153): Progressive
Target Lesion % Change from Baseline ([1]; Patient 5010004, Study Day 153): 31.63%
duration of stable disease ([1]; Patient 5010004, first 3 follow-up assessments, local investigator, RECIST v1.1): at least 4 months
time to discontinuation for progressive disease ([1]; Patient 5010004, study treatment): approximately 5 months
clinical observations ([2]; infigratinib 30 mg/kg PO qdx21): All mice had hollow at the level of sternum from D13 to D21
tolerability ([2]; infigratinib 30 mg/kg PO qdx21): well tolerated
maximum individual body weight loss ([2]; infigratinib 30 mg/kg PO qdx21, on D18): 8.6%
mean body weight loss ([2]; infigratinib 30 mg/kg PO qdx21, on D21): 2.1%
clinical observations ([2]; infigratinib 50 mg/kg PO qdx21): All mice had hollow at the level of sternum from D11 or D13 to D21
mice sacrificed due to BWL≥15% during 48 hours ([2]; infigratinib 50 mg/kg PO qdx21): one mouse was sacrificed
relative body weight compared to the vehicle control group ([2]; infigratinib 50 mg/kg PO qdx21, each timepoint): not significantly different
maximum individual body weight loss [2, 3]: 19.8%
mean body weight loss [2, 3]: 10.3%
tolerability ([2]; infigratinib 50 mg/kg PO qdx21, listed as infigratinib): tolerated; also recorded: slight and progressive BWL
